Experimental data: US6831199B1, “Pyrimidine compounds and derivatives thereof” (G. D. Searle & Co., priority 1995, dated 2004)
Counter-ions that a name gives are not always drawn.

Experiments:
platelet rich plasma = test: Human platelet rich plasma assay (ADP induced platelet aggregation); type: cell-based; conditions: Homo sapiens, Platelet, ADP induced platelet aggregation in human platelet rich plasma; read-out: Human PRP
Procedure: Human Platelet Rich Plasma Assays
Healthy aspirin free donors were selected from a pool of volunteers. The harvesting of platelet rich plasma and subsequent ADP induced platelet aggregation assays were performed as described in Zucker, M. B., “Platelet Aggregation Measured by the Photometric Method”, Methods in Enzymology 169(1989):117-133. Standard venipuncture techniques using a butterfly allowed the withdrawal of 45 mL of whole blood into a 60 mL syringe containing 5 mL of 3.8% trisodium citrate. Following thorough mixing in the syringe, the anti-coagulated whole blood was transferred to a 50 mL conical polyethylene tube. The blood was centrifuged at room temperature for 12 minutes at 200×g to sediment non-platelet cells. Platelet rich plasma was removed to a polyethylene tube and stored at room temperature until used. Platelet poor plasma was obtained from a second centrifugation of the remaining blood at 2000×g for 15 minutes. Platelet counts are typically 300,000 to 500,000 per microliter. Platelet rich plasma (0.45 mL) was aliquoted into siliconized cuvettes and stirred (1100 rpm) at 37° C. for 1 minute prior to adding 50 uL of pre-diluted test compound. After 1 minute of mixing, aggregation was initiated by the addition of 50 uL of 200 uM ADP. Aggregation was recorded for 3 minutes in a Payton dual channel aggregometer (Payton Scientific, Buffalo, N.Y.). The percent inhibition of maximal response (saline control) for a series of test compound dilutions was used to determine a dose response curve.

[1] = target: T1, Human fibrinogen receptor (αIIbβ3) (Homo sapiens, UniProt P05106+P08514); test: Purified IIb/IIIa receptor assay (solid phase receptor assay, competition with biotinylated vitronectin); type: binding; conditions: read-out: IIb/IIIa IC50
T1 construct: Human fibrinogen receptor (αIIbβ3) was purified from outdated platelets; from tissue; host or cells: outdated human platelets
Method in brief: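 Competition format: 1 nM biotinylated vitronectin plus test compound (highest 1.0×10^−4 M), 2 h at room temperature on wells coated with platelet-derived αIIbβ3. Buffer was TBS containing 1.0 mM Ca, Mg, Mn, pH 7.4. HRP anti-biotin readout at 450 nm; normalized to maximum binding, four-parameter curve fit.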

[2] = target: T2, Human vitronectin receptor (αvβ3) (Homo sapiens, UniProt P05106+P06756); test: Vitronectin adhesion assay (solid phase receptor assay, competition with biotinylated vitronectin); type: binding; conditions: read-out: AvB3 IC50
T2 construct: Human vitronectin receptor (αvβ3) was purified from human placenta; from tissue; host or cells: human placenta
Method in brief: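 Purified human αvβ3 coated overnight at 4 °C in TBS with 1.0 mM Ca++, Mg++, Mn++, pH 7.4; compounds (top final 1.0×10^−4 M) competed with 1 nM biotinylated vitronectin for 2 h at room temperature. Bound ligand detected by HRP anti-biotin/OPD at A450; values normalized to no-competitor controls, four-parameter curve fit.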

SMILES: CN(CC(=O)NC(CC(=O)O)c1cccnc1)C(=O)c1cccc(NC(=N)N)c1 (racemic) [Example 80, (±)β-[[2-[[[3-[(aminoiminomethyl)amino]phenyl]carbonyl]methylamino]acetyl]amino]pyridine-3-propanoic acid, bis(trifluoroacetate)salt]
- IC50 (platelet rich plasma): 30000 nM
- IC50 [1]: 4.35 nM
- IC50 [2]: 9.49 nM

SMILES: N=C(N)Nc1cccc(C(=O)NCC(=O)NC(CC(=O)O)c2ccccc2O)c1 (racemic) [Example 87, (±)sodium β-[[2-[[[3-[(aminoiminomethyl)amino]phenyl]carbonyl]amino]acetyl]amino]-2-hydroxybenzenepropanoate, sodium salt, trifluoroacetate salt]
- IC50 (platelet rich plasma): > 200000 nM
- IC50 [1]: 732 nM
- IC50 [2]: 6.35 nM

SMILES: N=C(N)Nc1cc(C(=O)NCC(=O)NC(CC(=O)O)c2cc(Cl)cc(Cl)c2)cc(C(F)(F)F)c1 (racemic) [Example 177, (±)β-[[2-[[[3-[(aminoiminomethyl)amino]-5-(trifluoromethyl)phenyl]carbonyl]amino]acetyl]amino]-3,5-dichlorobenzenepropanoic acid, trifluoroacetate salt]
- IC50 (platelet rich plasma): > 20000 nM
- IC50 [1]: 137 nM
- IC50 [2]: 0.58 nM

SMILES: O=C(O)CC(NC(=O)CNC(=O)c1cccc(NC2=NCCN2)c1)c1cc(Cl)cc(Cl)c1 (racemic) [Example 191, (±)β-[[2-[[[3-[(4,5-dihydro-1H-imidazol-2-yl)amino]phenyl]carbonyl]amino]acetyl]amino]-3,5-dichlorobenzenepropanoic acid, trifluoroacetate salt]
- IC50 (platelet rich plasma): > 20000 nM
- IC50 [1]: 70.3 nM
- IC50 [2]: 0.49 nM

SMILES: Cc1cc(C)cc(C(CC(=O)O)NC(=O)CNC(=O)c2cccc(NC(=N)N)c2)c1 (racemic) [Example 193, (±)β-[[2-[[[3-[(aminoiminomethyl)amino]phenyl]carbonyl]amino]acetyl]amino]-3,5-dimethylbenzenepropanoic acid, trifluoroacetate salt]
- IC50 (platelet rich plasma): > 20000 nM
- IC50 [1]: 209 nM
- IC50 [2]: 2.56 nM

SMILES: O=C(O)CC(NC(=O)CNC(=O)c1cccc(NC2=NCCCN2)c1)c1cc(Cl)cc(Cl)c1 (racemic) [Example 200, (±)3,5-dichloro-β-[[2-[[[3-[(1,4,5,6-tetrahydropyrimidin-2-yl)amino]phenyl]carbonyl]amino]acetyl]amino]benzenepropanoic acid, trifluoroacetate salt]
- IC50 (platelet rich plasma): > 200000 nM
- IC50 [1]: 1100 nM
- IC50 [2]: 0.48 nM

SMILES: COc1ccc(C(CC(=O)O)NC(=O)CNC(=O)c2cccc(NC(=N)N)c2)c(O)c1 (racemic) [Example 222, (±)β-[[2-[[[3-[(aminoiminomethyl)amino]phenyl]carbonyl]amino]acetyl]amino]-2-hydroxy-4-methoxybenzenepropanoic acid]
- IC50 (platelet rich plasma): > 200000 nM
- IC50 [1]: 112 nM
- IC50 [2]: 2.02 nM

SMILES: N=C(N)Nc1cccc(C(=O)NCC(=O)NC(CC(=O)O)c2cc(Cl)cc(Cl)c2O)c1 (racemic) [Example 225, (±)β-[[2-[[[3-[(aminoiminomethyl)amino]phenyl]carbonyl]amino]acetyl]amino]-3,5-dichloro-2-hydroxybenzenepropanoic acid, trifluoroacetate salt, monohydrate]
- IC50 (platelet rich plasma): > 20000 nM
- IC50 [1]: 471 nM
- IC50 [2]: 2.76 nM

SMILES: N=C(N)Nc1cccc(C(=O)NCC(=O)NC(CC(=O)O)c2cc([N+](=O)[O-])ccc2O)c1 (racemic) [Example 226, (±)β-[[2-[[[3-[(aminoiminomethyl)amino]phenyl]carbonyl]amino]acetyl]amino]-2-hydroxy-5-nitrobenzenepropanoic acid, trifluoroacetate salt]
- IC50 (platelet rich plasma): > 200000 nM
- IC50 [1]: 2910 nM
- IC50 [2]: 7.07 nM

SMILES: N=C(N)Nc1cccc(C(=O)NCC(=O)NC(CC(=O)O)c2cc(Br)cc(Br)c2O)c1 (racemic) [Example 227, (±)β-[[2-[[[3-[(aminoiminomethyl)amino]phenyl]carbonyl]amino]acetyl]amino]-3,5-dibromo-2-hydroxybenzenepropanoic acid, trifluoroacetate salt, monohydrate]
- IC50 (platelet rich plasma): > 200000 nM
- IC50 [1]: 2640 nM
- IC50 [2]: 14.1 nM
